Here are results for 33 compounds from US10995091B2 (Proximagen, LLC, priority 2010, dated 2021).

The structures appear in SMILES notation. Where a name gives a salt, the structure may show the parent alone.

The target in the assay is T1, Human CXCR4 transfected HEK293 cells (Homo sapiens, UniProt P61073).
T1 construct: expressed in transfected cells; host or cells: HEK293
The experiment in a line: CXCR4 functional calcium assay (calcium flux FLIPR, antagonism of SDF1 response). Type of assay: cell-based. The following applies: CXCR4 functional activity, antagonism of SDF1 (EC50 concentration), read-out: CXCR4 fKi. In a few lines: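 HEK293 cells stably transfected with human CXCR4 were loaded with 2 μM Fluo-4 AM in HBSS containing 2.5 mM probenecid, 0.1% BSA and 10 mM HEPES at pH 7.4 and 37° C. Compound was added first, then SDF1 at its EC50 concentration, and intracellular calcium fluorescence was followed on a FLIPR. Antagonist dose-response curves were fitted.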

T1 sequence (P61073 whole entry): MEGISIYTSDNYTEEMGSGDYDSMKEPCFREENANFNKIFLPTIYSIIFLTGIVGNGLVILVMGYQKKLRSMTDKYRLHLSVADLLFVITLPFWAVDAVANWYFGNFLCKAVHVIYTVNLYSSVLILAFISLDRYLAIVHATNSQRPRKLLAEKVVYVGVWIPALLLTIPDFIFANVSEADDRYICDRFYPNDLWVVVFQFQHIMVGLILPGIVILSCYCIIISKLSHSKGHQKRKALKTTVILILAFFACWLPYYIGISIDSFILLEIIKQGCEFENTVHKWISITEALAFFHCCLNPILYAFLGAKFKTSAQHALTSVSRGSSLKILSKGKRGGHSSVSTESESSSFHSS

On to `O=C(NCC1CC1)c1cccc(N2CCCN(CCCNCc3ccccc3Cl)CC2)n1` [Example 258, 6-[4-(3-{[(2-Chlorophenyl)methyl]amino}propyl)-1,4-diazepan-1-yl]-N-(cyclopropylmethyl)pyridine-2-carboxamide], for which the Ki was 100 to 500 nM.

For `CC(C)N1CCC(N2CCCN(c3cccc(C(=O)NCC4CC4)n3)CC2)CC1` [Example 63, N-(Cyclopropylmethyl)-6-{4-[1-(propan-2-yl)piperidin-4-yl]-1,4-diazepan-1-yl}pyridine-2-carboxamide], the Ki was < 20 nM.

As to `O=C(NCC1CC1)c1cccc(N2CCCN(C3CCN(C4CCCC4)CC3)CC2)n1` [Example 72, 6-[4-(1-Cyclopentylpiperidin-4-yl)-1,4-diazepan-1-yl]-N-(cyclopropylmethyl)pyridine-2-carboxamide], the Ki lay in the range of 20 to 100 nM.

With `COc1ccccc1CN1CCC(N2CCCN(c3cccc(C(=O)NCC4CC4)n3)CC2)CC1` [Example 133, N-(Cyclopropylmethyl)-6-(4-{1-[(2-methoxyphenyl)methyl]piperidin-4-yl}-1,4-diazepan-1-yl)pyridine-2-carboxamide], the Ki was 20 to 100 nM.

In the case of `Cc1cc(NC(=O)c2cccc(N3CCCN(C4CCN(Cc5ccccc5Cl)CC4)CC3)n2)cc(C)n1` [Example 85, 6-(4-{1-[(2-Chlorophenyl)methyl]piperidin-4-yl}-1,4-diazepan-1-yl)-N-(2,6-dimethylpyridin-4-yl)pyridine-2-carboxamide], the Ki is 20 to 100 nM.

`CCCCc1nc(-c2cccc(N3CCCN(C4CCN(C(C)C)CC4)CC3)n2)no1` [Example 157, 1-[6-(5-Butyl-1,2,4-oxadiazol-3-yl)pyridine-2-yl]-4-[1-(propan-2-yl)piperidin-4-yl]-1,4-diazepane]: the Ki fell in the range of 100 to 500 nM.

`Cc1nc(-c2cccc(N3CCCN(C4CCN(C(C)C)CC4)CC3)n2)no1` [Example 153, 1-[6-(5-Methyl-1,2,4-oxadiazol-3-yl)pyridin-2-yl]-4-[1-(propan-2-yl)piperidin-4-yl]-1,4-diazepane]: the Ki lay within 500 to 1000 nM.

Turning to `CC(C)N1CCC(N2CC3CCC2CN(c2cccc(C(=O)Nc4ccncc4)n2)C3)C(F)C1` (stereo not drawn) [Example 198], the Ki is 100 to 500 nM.

Turning to `CCCCNC(=O)c1cccc(N2CCCN(CC3CN(C(C)C)CCO3)CC2)n1` (stereo not drawn) [Example 250, N-Butyl-6-(4-{[4-(propan-2-yl)morpholin-2-yl]methyl}-1,4-diazepan-1-yl)pyridine-2-carboxamide], the Ki fell in the range of 20 to 100 nM.

As for `CC(C)CN(C)C(=O)c1cccc(N2CCCN(C3CCN(C(C)C)CC3)CC2)n1` [Example 17, N-Methyl-N-(2-methylpropyl)-6-{4-[1-(propan-2-yl)piperidin-4-yl]-1,4-diazepan-1-yl}pyridine-2-carboxamide], the Ki lay within 500 to 1000 nM.

Regarding `CC(C)N1CCC(N2CCCN(c3cccc(C(=O)NCCF)n3)CC2)CC1` [Example 8, N-(2-Fluoroethyl)-6-{4-[1-(propan-2-yl)piperidin-4-yl]-1,4-diazepan-1-yl}pyridine-2-carboxamide], the Ki was in the range of 100 to 500 nM.

Take `CC(C)N1CCC(N2CCCN(c3cccc(-c4noc(-c5cccnc5)n4)n3)CC2)CC1` [Example 166, 1-[1-(Propan-2-yl)piperidin-4-yl]-4-{6-[5-(pyridine-3-yl)-1,2,4-oxadiazol-3-yl]pyridine-2-yl}-1,4-diazepane tetrahydrochloride]: the Ki was in the range of 100 to 500 nM.

Turning to `Cc1cccc(N2CCCN(C3CCN(Cc4ccccc4Cl)CC3)CC2)n1` [Example 262, 1-{1-[(2-Chlorophenyl)methyl]piperidin-4-yl}-4-(6-methylpyridin-2-yl)-1,4-diazepane], the Ki lay within 500 to 1000 nM.

`Cc1nc(-c2cccc(N3CCN(C4CCCN(C(C)C)CC4)CC3)n2)[nH]c1C1CC1` (stereo not drawn) [Example 243, 4-{4-[6-(5-Cyclopropyl-4-methyl-1H-imidazol-2-yl)pyridin-2-yl]piperazin-1-yl}-1-(propan-2-yl)azepane]: the Ki was 100 to 500 nM.

`CC(C)N1CCC(N2CCCN(c3cccc(-c4noc(-c5ccncc5)n4)n3)CC2)CC1` [Example 167, 1-[1-(Propan-2-yl)piperidin-4-yl]-4-{6-[5-(pyridine-4-yl)-1,2,4-oxadiazol-3-yl]pyridine-2-yl}-1,4-diazepane tetrahydrochloride]: the Ki is 20 to 100 nM.

On to `CC(C)N1CCC(CN[C@@H]2CCN(c3cccc(-c4ncc(C5CC5)[nH]4)n3)C2)CC1` [Example 223, (3R)-1-[6-(4-Cyclopropyl-1H-imidazol-2-yl)pyridin-2-yl]-N-{[1-(propan-2-yl)piperidin-4-yl]methyl}pyrrolidin-3-amine], for which the Ki lay in the range of 500 to 1000 nM.

With `CC(C)N1CCC(N2CCCN(c3cccc(-c4cc5ccc(C#N)cc5[nH]4)n3)CC2)CC1` [Example 103, 2-(6-{4-[1-(Propan-2-yl)piperidin-4-yl]-1,4-diazepan-1-yl}pyridine-2-yl)-1H-indole-6-carbonitrile], the Ki was in the range of 100 to 500 nM.

Regarding `CC1CN(c2cccc(C(=O)Nc3ccncc3)n2)CCN(C2CCN(C(C)C)CC2)C1` (stereo not drawn) [Example 182, 6-{6-Methyl-4-[1-(propan-2-yl)piperidin-4-yl]-1,4-diazepan-1-yl}-N-(pyridin-4-yl)pyridine-2-carboxamide], the Ki was in the range of 20 to 100 nM.

As for `Cc1ccc(N2CCCN(C3CCN(C(C)C)CC3)CC2)nc1C(=O)NCC1CC1` [Example 125, N-(Cyclopropylmethyl)-3-methyl-6-{4-[1-(propan-2-yl)piperidin-4-yl]-1,4-diazepan-1-yl}pyridine-2-carboxamide], the Ki was in the range of 100 to 500 nM.

As for `CCc1cnc(-c2cccc(N3CCCN(C4CCN([C@H](C)CC)CC4)CC3)n2)[nH]1` [Example 116, 1-{1-[(2R)-Butan-2-yl]piperidin-4-yl}-4-[6-(4-ethyl-1H-imidazol-2-yl)pyridine-2-yl]-1,4-diazepane], the Ki is < 20 nM.

With `Cc1nc(-c2cccc(NCCNC3CCCN(C4CCCC4)CC3)n2)[nH]c1C1CC1` (stereo not drawn) [Example 246, 1-Cyclopentyl-N-(2-{[6-(5-cyclopropyl-4-methyl-1H-imidazol-2-yl)pyridin-2-yl]amino}ethyl)azepan-4-amine], the Ki lay within 20 to 100 nM.

Regarding `CC(C)NCC(O)CN1CCCN(c2cccc(C(=O)NCc3cccnc3)n2)CC1` (stereo not drawn) [Example 254, 6-{4-[2-Hydroxy-3-(propan-2-ylamino)propyl]-1,4-diazepan-1-yl}-N-(pyridin-3-ylmethyl)pyridine-2-carboxamide], the Ki is 100 to 500 nM.

For the compound `CC(C)CNC(=O)c1cccc(N2CCCN(C3CCN(C(C)C)CC3)CC2)n1` [Example 6, N-(2-Methylpropyl)-6-{4-[1-(propan-2-yl)piperidin-4-yl]-1,4-diazepan-1-yl}pyridine-2-carboxamide], the Ki lay in the range of 100 to 500 nM.

As to `O=C(Nc1ccncc1)c1cccc(N2CCCN(C3CCN(Cc4ccccc4Cl)CC3)CC2)n1` [Example 54, 6-(4-{1-[(2-Chlorophenyl)methyl]piperidin-4-yl}-1,4-diazepan-1-yl)-N-(pyridine-4-yl)pyridine-2-carboxamide], the Ki was < 20 nM.

With `CC(C)N1CCC(N2C3CCCC2CN(c2cccc(C(=O)NCC4CC4)n2)CC3)CC1` (stereo not drawn) [Example 217, N-(Cyclopropylmethyl)-6-{10-[1-(propan-2-yl)piperidin-4-yl]-3,10-diazabicyclo[4.3.1]decan-3-yl}pyridine-2-carboxamide], the Ki was in the range of 100 to 500 nM.

Regarding `c1cc(NCCNC2CCN(C3CCCC3)C2)nc(-c2ncc(C3CC3)[nH]2)c1` (stereo not drawn) [Example 233, N-{2-[(1-Cyclopentylpyrrolidin-3-yl)amino]ethyl}-6-(5-cyclopropyl-1H-imidazol-2-yl)pyridin-2-amine], the Ki lay in the range of 500 to 1000 nM.

With `CC(C)N1CCC(N2CCCN(c3cccc(C(=O)NCc4cocn4)n3)CC2)CC1` [Example 41, N-(1,3-Oxazol-4-ylmethyl)-6-{4-[1-(propan-2-yl)piperidin-4-yl]-1,4-diazepan-1-yl}pyridine-2-carboxamide], the Ki lay in the range of 20 to 100 nM.

Turning to `CC(C)N1CCC(N2CCCN(c3cccc(-c4noc(-c5ccccn5)n4)n3)CC2)CC1` [Example 165, 1-[1-(Propan-2-yl)piperidin-4-yl]-4-{6-[5-(pyridine-2-yl)-1,2,4-oxadiazol-3-yl]pyridine-2-yl}-1,4-diazepane tetrahydrochloride], the Ki lay in the range of 100 to 500 nM.

Consider `CC(C)N1CCC(N2CCCN(c3cccc(C(=O)Nc4ccncc4)n3)CC2)C(F)C1` (stereo not drawn) [Example 210, 6-{4-[3-Fluoro-1-(propan-2-yl)piperidin-4-yl]-1,4-diazepan-1-yl}-N-(pyridin-4-yl)pyridine-2-carboxamide], for which the Ki was < 20 nM.

With `O=C(Nc1ccncc1)c1cccc(N2CC[C@@H](NC[C@H]3CCN(C4CCCC4)C3)C2)n1` [Example 227, 6-[(3R)-3-({[(3R)-1-Cyclopentylpyrrolidin-3-yl]methyl}amino)pyrrolidin-1-yl]-N-(pyridin-4-yl)pyridine-2-carboxamide], the Ki is < 20 nM.

Regarding `[2H]C1([2H])CCN(c2cccc(C(=O)Nc3ccncc3)n2)CCN1C1CCN(C(C)C)CC1F` (stereo not drawn) [Example 187, 6-{4-[3-Fluoro-1-(propan-2-yl)piperidin-4-yl]-5,5-dihydrogenio-1,4-diazepan-1-yl}-N-(pyridin-4-yl)pyridine-2-carboxamide], the Ki is 20 to 100 nM.

`O=C(NCC(F)(F)F)c1cccc(N2CCCN(C3CCN(Cc4ccccc4Cl)CC3)CC2)n1` [Example 48, 6-(4-{1-[(2-Chlorophenyl)methyl]piperidin-4-yl}-1,4-diazepan-1-yl)-N-(2,2,2-trifluoroethyl)pyridine-2-carboxamide]: the Ki was in the range of 100 to 500 nM.

With `CC(C)N1CCC(N2CCCN(c3cccc(C(=O)NCc4cccnc4)n3)CC2)C(F)C1` (stereo not drawn) [Example 185, 6-{4-[3-Fluoro-1-(propan-2-yl)piperidin-4-yl]-1,4-diazepan-1-yl}-N-(pyridin-3-ylmethyl)pyridine-2-carboxamide], the Ki lay in the range of 100 to 500 nM.
